Data published in patent publication US7067517B2 (priority 2001, dated 2006).
Where two headings read alike, the source gives them in different places.

Experiments:
[1] = molecular target: T1, Hormone-sensitive lipase (HSL) (Homo sapiens, UniProt Q05469); assay: biochemical; assay type: biochemical; conditions: for activity at 10 µM: read-out: Test 3180.2 HSL % ACTIVITY All
T1 sequence (Q05469 1-1076): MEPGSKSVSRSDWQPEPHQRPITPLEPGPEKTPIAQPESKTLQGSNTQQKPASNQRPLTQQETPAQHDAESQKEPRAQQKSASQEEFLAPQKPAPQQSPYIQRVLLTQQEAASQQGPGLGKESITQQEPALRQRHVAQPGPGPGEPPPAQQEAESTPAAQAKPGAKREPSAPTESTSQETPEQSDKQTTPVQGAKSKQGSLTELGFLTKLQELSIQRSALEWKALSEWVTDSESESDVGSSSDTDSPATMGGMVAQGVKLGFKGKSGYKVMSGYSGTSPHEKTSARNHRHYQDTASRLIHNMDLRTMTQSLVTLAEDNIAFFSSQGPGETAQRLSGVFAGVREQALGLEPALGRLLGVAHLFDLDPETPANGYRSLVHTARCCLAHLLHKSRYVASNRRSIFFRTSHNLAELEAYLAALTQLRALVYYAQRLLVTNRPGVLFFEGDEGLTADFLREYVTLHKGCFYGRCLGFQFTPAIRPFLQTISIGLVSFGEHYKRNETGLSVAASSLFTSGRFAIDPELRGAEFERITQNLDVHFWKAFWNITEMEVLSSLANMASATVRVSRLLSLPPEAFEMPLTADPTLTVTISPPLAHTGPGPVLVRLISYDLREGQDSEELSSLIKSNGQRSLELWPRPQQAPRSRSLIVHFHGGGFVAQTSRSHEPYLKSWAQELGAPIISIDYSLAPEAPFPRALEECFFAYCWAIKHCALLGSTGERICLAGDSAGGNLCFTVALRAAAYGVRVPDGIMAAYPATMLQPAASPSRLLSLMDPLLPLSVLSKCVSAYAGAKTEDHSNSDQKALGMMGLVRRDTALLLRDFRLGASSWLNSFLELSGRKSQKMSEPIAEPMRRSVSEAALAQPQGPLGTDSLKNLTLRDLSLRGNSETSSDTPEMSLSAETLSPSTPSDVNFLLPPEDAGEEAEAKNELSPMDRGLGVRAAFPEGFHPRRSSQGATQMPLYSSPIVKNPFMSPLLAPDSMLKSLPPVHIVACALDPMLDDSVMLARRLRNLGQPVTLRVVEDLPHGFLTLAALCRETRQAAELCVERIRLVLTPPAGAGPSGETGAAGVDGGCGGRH
Excerpt: (§1) Materials. The Hormone-sensitive lipase was provided by Dr. Cecilia Holm, from Lund University Sweden or produced and purified by Novo Nordisk (NN) using the reagents and protocols used by Dr. Holm. The substrates used are: ^3H-labeled triolein (TO) from Amersham, Buckinghamshire, U.K. cat No. TRA191; 5–20 Ci/mmol dissolved in toluene, triolein (Sigma, Cat. No. T-1740), fluorochrome-labeled triacylglyceride (cis-octadec-9-enoic acid 2-[12-(7-nitrobenzo[1,2,5]oxadiazol-4-ylamino)dodecanoyloxy]-1-cis-octadec-9-enoyloxymethyl-ethyl ester) prepared by Novo Nordisk (NN) by conventional methods, and 1,3-(di[^3H]-stearin), 2-(PEG-Boitin)glycerol prepared in collaboration with Amersham Pharmacia Biotech, UK and described in WO 01/073442. Phosphatidyl choline (PC) and phosphatidyl inositol (PI) are from Sigma (St Luis Mo. cat. Nos. P-3556 and P-5954 respectively). All other reagents are of commercial grade and obtained from various commercial sources.
3180.2: Assay for determination of percent inhibition by compound at 10 μM concentration.
A lipid emulsion with ^3H-Triolein and phospholipid is used as substrate with a standard cencentration of highly purified HSL. BSA is added as product receptor. The substrate is prepared as follows:
30 μl PC:PI (20 mg/ml solution of PC:PI 3:1 prepared in chloroform)+128 μl cold TO+15 μl ^3H-TO are mixed and then evaporated under a gentle stream of N2 followed by 20–30 minutes in a Speedvac to ensure the absence of residual solvent.
Compound and HSL are incubated for 30 min at 25° C. before addition of substrate. Reaction is stopped after 30 min at 25° C. by adding a mixture of methanol, chloroform and heptane at high pH. Formed product is separated from substrate by phase separation.
Results are given as percent activity relative to an un-inhibited sample (no compound).

[2] = molecular target: T1, Hormone-sensitive lipase (HSL); assay type: biochemical
Excerpt: as §1
2898.2: This method is an enzyme assay based upon SPA (scintillation proximity assay) particles. The substrate, 1,3-(di-[^3H]-stearin), 2-(PEG-Biotin)-glycerol, is marked with ^3H in both fatty acid moieties in the tri-glyceride. The third moiety of the tri-glyceride is a PEG linked Biotin. The substrate binds through Biotin to streptavidin in the SPA particles and the proximity between the radioactive tritium in the stearic acid moiety and the SPA particle results in emission of light from the SPA particles. The assay is an on-bead assay where HSL degrades the substrate, where after ^3H-stearin acid is released from the bead. The amount of light emitted is proportional to the amount of substrate bound to the receptor. When a compound that inhibits the activity of HSL is present it results in a decrease in degradation of the substrate and thus an increase in the amount of light emitted and a concomitant increase in % Eff. % Eff(% Inhibition)=(S−S0Eff)/(SmaxEff−S0Eff)×100 Where S=signal in dpm., SOEff=no inhibitor added, SmaxEff=with maximum concentration of inhibitor. Results

[3] = molecular target: T1, Hormone-sensitive lipase (HSL); assay: biochemical; conditions: for activity at 10 µM: read-out: Test 3190.1 HSL_FL % ACTIVITY All
Method: Materials. The Hormone-sensitive lipase was provided by Dr. Cecilia Holm, from Lund University Sweden or produced and purified by Novo Nordisk (NN) using the reagents and protocols used by Dr. Holm. […] All other reagents are of commercial grade and obtained from various commercial sources.
BSA is added as product receptor. The transfer of the fluorochrome from the lipid phase to the water (BSA) phase changes the fluorescent properties of the fluorochrome. The changes can be monitored on a fluorimeter with an excitation wavelength of 450 nm and an emission wavelength of 545 nm.
Compound and HSL (20 μL compound, 10 μL enzyme and 70 μL PED-BSA buffer) is pre-incubated for 30 min at 25° C. before addition of substrate (100 μL). Amount of formed product is measured after 120 min incubation at 37° C.

[4] = 10 μM concentration, percent activity relative to an un-inhibited sample (no compound)
[5] = SPA on-bead assay, % Eff (% Inhibition)
[6] = 10 μM sample concentration, percent activity relative to a non-inhibited sample (no compound)

With “N-Methyl-N-phenethyl-5-ethyl-3-(4-chlorophenyl)-[1,2,4]triazole-1-carboxamide [Example 119]” the “Test 3180.2 HSL % ACTIVITY All” value [1, 4] was 10%.

With `CN(C)C(=O)On1nnc2ccccc21` [Example 103, Dimethylcarbamic acid benzotriazol-1-yl ester] the activity at 10 µM [1] was 2% and the “Test 2898.2 HSL2 % Inhibition All” value [2, 5] was 101.4%.

In the case of `CSc1nc(-c2ccc(Cl)cc2)nn1C(=O)N(C)C` [Example 124, N,N-Dimethyl-3-(4-chloro-phenyl)-5-methylsulfanyl-[1,2,4]triazole-1-carboxamide], the “Test 2898.2 HSL2 % Inhibition All” value [2, 5] was 75.1%.

For `Cc1ccc(CSc2nnc(OC(=O)N(C)C)n2-c2cccc(Cl)c2)cc1` [Example 133, Dimethyl carbamic acid 4-(3-chloro-phenyl)-5-(4-methyl-benzylsulfanyl)-4H-[1,2,4]triazol-3-yl ester], the “Test 2898.2 HSL2 % Inhibition All” value [2, 5] was 15.8%.

For `CC(C)C(Cl)=NOC(=O)NCC(O)c1ccccc1` (centres unmarked) [Example 113, N-(2-Hydroxy-2-phenylethylcarbamoyloxy)-isobutyrimidoyl chloride], the “Test 2898.2 HSL2 % Inhibition All” value [2, 5] was 18.3%.

`CC(C)(C)Oc1ccc(OC(=O)N2CCOCC2)cc1` [Example 87, Morpholine-4-carboxylic acid 4-tert-butoxy-phenyl ester] gave an activity at 10 µM [3, 6] of 48% and a melting point of 128.8 to 129.5 °C.

For `CSc1nc(-c2ccc(Cl)cc2)nn1C(=O)N1CCOCC1` [Example 120, [3-(4-Chlorophenyl)-5-methylsulfanyl-[1,2,4]triazol-1-yl]-morpholin-4-yl-methanone], the activity at 10 µM [1, 4] was 40%.

For `Cc1c(Cc2ccccc2)c(=O)oc2cc(OC(=O)N3CCOCC3)ccc12` [Example 92], the “Test 3180.2 HSL % ACTIVITY All” value [1, 4] was 62%.

For `CSc1nc(-c2ccc3ccccc3c2)nn1C(=O)N(C)C` [Example 121, N,N-Dimethyl-5-methylsulfanyl-3-naphthalen-2-yl-[1,2,4]triazole-1-carboxamide], the activity at 10 µM [1, 4] was 24%.

In the case of `CC(C)C(Cl)=NOC(=O)NCc1ccc(F)cc1` [Example 112, N-(4-Fluorobenzylcarbamoyloxy)-isobutyrimidoyl chloride], the “Test 2898.2 HSL2 % Inhibition All” value [2, 5] was 86%.

Work on `CCN(C(=O)Oc1ccc(Oc2ccc(C(F)(F)F)cc2)cc1)c1ccccc1` [Example 54, Ethyl-phenyl-carbamic acid 4-(4-trifluoromethyl-phenoxy)-phenyl ester] yielded an activity at 10 µM [3, 6] of 52%.

In the case of `O=C(Oc1ccc(Oc2ccc(C(F)(F)F)cn2)cc1)N1CCc2ccccc21` [Example 62, 2,3-Dihydro-indole-1-carboxylic acid 4-(5-trifluoromethyl-pyridin-2-yloxy)-phenyl ester], the activity at 10 µM [3, 6] was 88%.

For `O=C(Oc1ccc(Oc2ccc3c(C(F)(F)F)cc(C(F)(F)F)nc3n2)cc1)N1CCOCC1` [Example 90, Morpholine-4-carboxylic acid 4-(5,7-bis-trifluoromethyl-[1,8]naphthypyridin-2-yloxy)-phenyl ester], the “Test 3190.1 HSL_FL % ACTIVITY All” value [3, 6] was 24%.

With `Cc1c(-c2ccccc2)c(=O)oc2cc(OC(=O)N(C)c3ccccc3)ccc12` [Example 47, Methyl-phenyl-carbamic acid 4-methyl-2-oxo-3-phenyl-2H-chromen-7-yl ester] the activity at 10 µM [3] was 42%.

For `CN(C(=O)Oc1ccc(Oc2ccc(C(F)(F)F)cn2)cc1)C1CCCCC1` [Example 59, Cyclohexyl-methyl-carbamic acid 4-(5-trifluoromethyl-pyridin-2-yloxy)-phenyl ester], the activity at 10 µM [3] was 16%.

With `COc1ccc(-c2c(C)c3ccc(OC(=O)N(C)c4ccccc4)cc3oc2=O)cc1` [Example 46, Methyl-phenyl-carbamic acid 3-(4-methoxy-phenyl)-4-methyl-2-oxo-2H-chromen-7-yl ester] the activity at 10 µM [3] was 43%.

Work on `CCCCCCSc1nc(-c2ccc(C)cc2)nn1C(=O)N(C)c1ccccc1` [Example 118, N-Methyl-N-phenyl-5-hexylsulfanyl-3-p-tolyl-[1,2,4]triazole-1-carboxamide] yielded an activity at 10 µM [1, 4] of 24%.

Work on `CN(C(=O)On1ccnn1)c1ccccc1` [Example 144, Methyl-phenyl-carbamic acid [1,2,3]triazol-1-yl ester] yielded an activity at 10 µM [3] of 25% and a melting point of 105 to 106 °C.

In the case of “1-Biphenyl-4-yl-3-methylamino-propenone-cyclohexyl-carbamic acid [Example 115]”, the “Test 3180.2 HSL % ACTIVITY All” value ([1]; 10 µM) was 85% and the “Test 2898.2 HSL2 % Inhibition All” value [2] was 73.6%.

With `CSc1nc(-c2ccc(-c3ccccc3)cc2)nn1C(=O)N(C)C` [Example 123, N,N-Dimethyl-3-biphenyl-4-yl-5-methylsulfanyl-[1,2,4]triazole-1-carboxamide] the activity at 10 µM [1, 4] was 22%.

In the case of `O=C(Nc1cccn1-c1ncc(C(F)(F)F)cc1Cl)Oc1ccc(Cl)cc1` [Example 117, [1-(3-Chloro-5-trifluoromethyl-pyridin-2-yl)-1H-pyrrol-2-yl]-carbamic acid 4-chloro-phenyl ester], the activity at 10 µM [1, 4] was 2%.

Work on `CCSc1nc(-c2ccc(Cl)cc2)nn1C(=O)N(C)C` [Example 122, N,N-Dimethyl-3-(4-chloro-phenyl)-5-ethylsulfanyl-[1,2,4]triazole-1-carboxamide] yielded an activity at 10 µM [1, 4] of 14%.
